According to US12503446B2, “Bromodomain inhibitors” (FORSCHUNGSZENTRUM JÜLICH GMBH, priority 2019, dated 2025):

Columns and labels:
[1] = system: PARP1 cleavage in HEL cells; assay: PARP1 cleavage Western blot (apoptosis), HEL; format: cell-based; conditions: 5 μM
Method: Cell lysates were produced with RIPA lysis buffer (50 mM Tris pH 7.4, 150 mM sodium chloride, 1 mM EDTA, 1% Triton-X, 15% glycerol, 0.5% sodium deoxycholate, and protease/phosphatase inhibitors). Protein concentrations were determined by the Bradford Protein Assay using a Nanodrop Spectrometer (NanoDrop 2000/2000c system, Thermo Fisher Scientific, Darmstadt, Germany) at 595 nm. To 25 μg of protein lysates was added 4xLämmli sample buffer, followed by denaturing at 65° C. for 5 min and introduction into the SDS-Page. The proteins were transferred by the wet blot method in Towbin buffer (3 g Tris, 14.4 g glycine, 5% methanol per litre of ddH2O) to a PVDF membrane at 100 mA overnight. The membrane was blocked with 10% BSA in TBS-T buffer (20 mM Tris-HCl, pH 7.6, 137 mM NaCl, 0.05% IGEPAL). The primary antibodies were incubated at 4° C. overnight, and the HRP-labelled antibodies at room temperature with the membrane for […]. The proteins were detected by means of PCA-ECL solution using a chemiluminescence detector (Fusion SL, PeqLab).
In addition, a possible induction of apoptosis in the cell lines described by compound MF2 was examined. […] Protein concentrations were determined with the Bradford protein assay using a Nanodrop Spectrometer at 595 nm. […] The proteins were detected by means of PCA-ECL solution using a chemiluminescence detector (Fusion SL, PeqLab). […]

Molm-14 cells [2] = assay: Viability from trypan blue staining, Molm-14; format: cell-based; conditions: 5 μM, compared to PFI-1
Method: Cell count and viability was determined after trypan blue staining. The appropriate concentrations of the inhibitors per ml of medium were added, or the correspondingly highest volume of DMSO was added as control group.
During the study of cell proliferation, the viability of the cell lines was likewise determined from the trypan blue staining. Trypan blue cannot penetrate into living cells.

Molm-14 cells [3] = assay: Cell cycle analysis (propidium iodide, flow cytometry), Molm-14; format: cell-based; conditions: compared to PFI-1
Method: The influence of the inhibitors used on the cell cycle was examined by means of propidium iodide staining of the fixed cells. For this purpose, the cells were fixed with 95% ethanol at −20° C., RNA was destroyed by RNase (100 μg/ml) at 37° C. for […], and the DNA was stained by means of propidium iodide (50 μg/ml). Using a flow cytometer (Gallios (Beckman Coulter, Krefeld, Germany)), the cell cycle phases were analysed, and the data were evaluated by means of FlowJo Software (Version 10).
During the proliferation, the cells go through different stages of the cell cycle in which genomic DNA is replicated, the cell nucleus is broken down and cell division takes place, resulting in two identical cells.

[4] = system: mononuclear cells from MPN patients (JAK2V617F-positive); assay: CFU assay, MPN patients (PV, PMF, ET); format: cell-based, human
Method: With the aid of the CFU assay, it is possible to determine the colony-forming capacity of individual cells in a semisolid methylcellulose medium (MethoCult H4434, StemCell Technologies, Cologne, Germany). The number of colonies was determined after 7-11 days.
PBMCs from PV, ET or PMF patients: 4×10^5 cells/ml
Individual cells in the CFU assay form cell colonies in culture after 12 days, unless the formation thereof is prevented by inhibitors.
Myeloproliferative neoplasia includes three conventional Philadelphia chromosome-negative (BCR-ABL-negative) disease entities: polycythemia vera (PV), essential thrombocythaemia (ET) and primary myelofibrosis (PMF). Both PV and ET can progress to become myelofibrosis (MF), which usually means a fatal deterioration in the disease state and in the success of treatment. All the MPN patients involved in these studies were JAK2V617F-positive.

[5] = system: haematopoietic cell lines, erythroleukaemia and AML cell lines; assay: Inhibitory activity in haematopoietic cell lines (summary statements); format: cell-based
Method: All studies with the HEL, Molm-14 and K562 cell lines mentioned (sourced from DSMZ: ACC-11, ACC-10 and ACC-777) were conducted under germ-free conditions under a sterile hood. Incubation was effected at 37° C. in an incubator at a CO2 saturation of 5%. For the passage of the suspension cells, the cells were transferred in a Falcon prefilled with PBS (phosphate buffered saline) and centrifuged at 1200 rpm for 5 min. All three cell lines were cultured in RPMI-1640 medium (Gibco, Thermo Fischer Scientific, Darmstadt, Germany) with 10% FCS and 1% penicillin streptomycin.
The viability and metabolic activity of the cells were measured by the MTT assay. Yellow, water-soluble MTT (3-([…])-2,5-diphenyltetrazolium bromide) is a tetrazolium salt which is reduced to dark blue formazan in living cells. Insoluble formazan is released by addition of isopropanol-HCl, and its intensity can be determined by photometry at a wavelength of 550 nm. Thus, the proportion of living cells is measured by comparison with a particular control sample. The cells were counted and washed with PBS, and 30 000 cells per well were sown in triplicates in a 96-well plate. For the inhibitor treatment, the stated final concentrations were used. For this purpose, 10 µl of the appropriate inhibitor dilution was introduced into the 96-well plates, and then 90 μl of cell suspension was pipetted in. The plates were incubated in an incubator for 72 h (37° C., 5% CO2). After the incubation, 10 μl of MTT solution (5 mg/ml) was applied to the wells with a multichannel pipette and thoroughly resuspended. This was followed by incubation for 4 h in the dark at room temperature. Subsequently, the cells were resuspended in 100 μl of isopropanol-HCl and lysed, and absorption at a wavelength of 550 nm was measured by photometry with a plate reader (Kayto, RT-2100C).

For `CN1Cc2cc(N=[S@@](C)(=O)c3ccccc3)ccc2NC1=O` [MF2-S, (S)—N-(3-methyl-2-oxo-1,2,3,4-tetrahydroquinazolin-6-yl)-S-methyl-S-phenylsulfoximine], which “band for the PARP1 cleavage product, HEL” value ([1]; 48 h, compared to PFI-1) is on record?
The value was “more marked in HEL cells than in the case of PFI-1 treatment”.

What about the “induction of apoptosis, HEL” value ([1]; compared to MF2, MF2-R, PFI-1) of the same compound?
Its value is “induced apoptosis more strongly than the other compounds examined”.

And the “viability of Molm-14 cells” value (Molm-14 cells [2])?
The value was “significantly reduced the viability”.

And the “subG1 phase (percentage of dead cells), Molm-14” value (Molm-14 cells [3])?
The value was “significantly higher proportions”.

What about the “synthesis phase (S phase) of cell cycle, Molm-14” value (Molm-14 cells [3]) of the same compound?
Its value is “more significantly inhibited by MF2-S than by PFI-1”.

What about the “colony count, PMF patient” value ([4]; 1 μM) of the same compound?
Its value is “very efficiently reduced the colony count”.

And the “colony count, MPN patients” value ([4]; 5 μM, compared to PFI-1)?
Its value is “significantly greater reduction in each case in the colony count”.

What about the “inhibitory activity in haematopoietic / leukaemia cell lines (in words)” value [5] of the same compound?
The value was “excellent inhibition of the cell proliferation”.
